From patent US4431664A, “Compound with antiulcerogenic activity, process for the preparation thereof and pharmaceutical composition therefrom” (Ausonia Farmaceutici s.r.l., priority 1981, dated 1984)

Tested on: mouse
Assay: Toxicity by single intraperitoneal administration, LD50 (Litchfield and Wilcoxon)
Type: in vivo
Details: i.p., in words
Source text: The toxicity of AP 880 by single administration has been studied in comparison with the toxicity of ranitidine in mouse, by administration of larger and larger doses of compound (I) by the intraperitoneal route. The LD50 values, determined according to the method of Litchfield and Wilcoxon (J. Pharm. Exp. Ther. 96-99, (1949)) are reported in the following Table: […]

Compound: CN(C)Cc1ccc(CSCCNC(=C[N+](=O)[O-])NCc2ccc3c(c2)OCO3)o1 [AP 880, N-(2-(((5-(dimethylamino)-methyl-2-furanyl)-methyl)-thio)-ethyl)-N'-(3,4-methylenedioxybenzyl)-2-nitro-1,1-ethendiamine]
- toxicity with respect to ranitidine: substantially lower toxicity
